Data as given in patent US6548543B1, “Remedies or preventives containing cyclopentenone compounds as the active ingredient” (Takara Shuzo Co., Ltd., priority 1998, dated 2003).

What was measured:
[1] = tested on: Candida albicans TIMM0136; assay: Antifungal activity, growth inhibition; type: cell-based; settings: 10 μl of solution at 100 or 500 μg/ml added to 100 μl culture; 30° C., 48 hours
Method: Dipropionylcyclopentenone, diisobutyrylcyclopentenone and di-2-hexenoylcyclopentenone were used to examine their antifungal activities against Candida albicans TIMM0136.
Candida albicans cells were cultured overnight in YNBG medium containing 0.67% Yeast Nitrogen Base (Difco) and 1.0% glucose (seed culture). The culture was then diluted with fresh Yeast Nitrogen Base medium to a concentration of 1×10^6 cells/ml. 100 μl of the dilution was dispensed into each well of a 96-well microtiter plate.
10 μl each of solutions of dipropionylcyclopentenone, diisobutyrylcyclopentenone or di-2-hexenoylcyclopentenone in 70% ethanol at a concentration of 100 μg/ml or 500 μg/ml, or 10 μl of 70% ethanol solution was added to the well. The plate was incubated without shaking at 30° C. for 48 hours (main culture).

NK cells = type: in vivo, ddY mice; settings: mice administered intraperitoneally
Method: ddY mice (female, 7 weeks old) were purchased from Japan SLC and pre-bred for 1 week before using in experiments.
1×10^6 Ehrlich ascites carcinoma cells were intraperitoneally inoculated to each mouse. 10 mg/kg of cyclopentenone, 30 mg/kg of GM or 10 mg/kg of dipropionylcyclopentenone was intraperitoneally administered to the mouse on the day after the inoculation. Saline was administered to a control mouse.
A spleen was taken out from the mouse 10 days after the inoculation with cancer cells, finely minced and suspended in RPMI-1640 medium containing 10% FCS (HyClone) to obtain a single cell suspension. Adhesive cells adhered to a plastic Petri dish were removed from the cell suspension and non-adhesive cells were used as NK cells.
The NK cells were suspended in RPMI-1640 medium containing 10% FCS at a concentration of 6×10^6/ml. 100 μl/well of the suspension was seeded into a microtiter plate.
Target cells were prepared as follows. 3700 kBq of ^51Cr (Amersham) was added to 1×10^6 YAC-1 cells (Dainippon Pharmaceutical). The cells were cultured at 37° C. for 1 hour for labeling. The labeled cells were washed twice and then suspended in RPMI-1640 medium containing 10% FCS at a concentration of 2×10^5 cells/ml. […] The radioactivity (experimental value) was measured using an auto gamma counter.
100 μl of the culture medium was added to the reaction system in place of the NK cells and the radioactivity was measured in order to measure the radioactivity spontaneously released from the target cells (control value).
Furthermore, the radioactivity released into the supernatant when 1% Triton (Nacalai Tesque) was added to the reaction system to lyse the 51Cr-labeled YAC-1 cells was measured in order to measure the total radioactivity contained in the reaction system (total radioactivity value).
The cytotoxicity (%) specifically mediated by the NK cells can be determined according to the following equation.
Cytotoxicity (%)=[(experimental value−control value)/(total radioactivity value−control value)]×100

[2] = tested on: λ-carrageenan pedal edema; assay: Carrageenan induced pedal edema; type: in vivo, Lewis rats; settings: rat, 3 hours after carrageenan
Summary of the method: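 Fasted male Lewis rats (about 250 g, 4/group) given compound orally in olive oil at 1 or 10 mg/10 ml/kg; 0.5 h later 100 μl 1% λ-carrageenan injected into right hind paw. Paw volume measured 3 h post-injection; expressed as % increase over pre-carrageenan volume.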

[3] = tested on: spleen lymphocytes stimulated with Con A; assay: Lymphocyte blastogenesis stimulated with Con A, 3H-thymidine uptake; type: cell-based, ddY mouse; settings: 10 μM
Method: (1) A spleen was taken out from ddY mouse (male, 7 weeks old, purchased from Japan SLC), finely minced and suspended in RPMI-1640 medium containing 10% FCS (HyClone) to obtain a single cell suspension. The cell suspension was seeded into a plastic Petri dish and cultured at 37° C. for 2 hours in a CO2 incubator to remove adhesive cells adhered to the dish. Non-adhesive cells were used as spleen lymphocytes. 200 μl of suspension of the spleen lymphocytes at a cell concentration of 2×10^6/ml was seeded into each well of a 96-well microtiter plate. Dipropionylcyclopentenone at a varying concentration was added to each well other than the control well. Furthermore, 5 μg of Con A (Nacalai Tesque) was added to each well. The plate was incubated at 37° C. for 1 day in a CO2 incubator. After incubation, 1 μCi of ^3H-thymidine was added to each well. After culturing for additional 1 day, the uptake into cells was measured using a liquid scintillation counter.
FIG. 7 illustrates the relationship between the concentration of dipropionylcyclopentenone and the amount of ^3H-thymidine uptake. The horizontal axis represents dipropionylcyclopentenone concentration (μM) and the vertical axis represents the ^3H-thymidine uptake (CPM). The open bar represents the ^3H-thymidine uptake without stimulation.

[4] = tested on: mixed spleen lymphocytes (BALB/c and C57BL/6); assay: Mixed lymphocyte reaction, 3H-thymidine uptake; type: cell-based, mouse; settings: 1 μM
Method: (2) Spleens were taken out from a BALB/c mouse (male, 6 weeks old, purchased from Japan SLC) and a C57BL/6 mouse (male, 6 weeks old, purchased from Japan SLC) and spleen lymphocytes were obtained according to the method as described in Example 11-(1). The concentration of each of the cell suspensions was adjusted to 2×10^6 cell/ml, 100 μl portions from respective suspensions were mixed together and seeded into a 96-well microtiter plate. Dipropionylcyclopentenone at a varying concentration was added to the wells other than the control well, and the plate was incubated at 37° C. for 4 days in a CO2 incubator. After incubation, 1 μCi of ^3H-thymidine was added to each well, and the plate was incubated for additional 1 day. The uptake into cells was measured using a liquid scintillation counter.
FIG. 8 illustrates the relationship between the concentration of dipropionylcyclopentenone and the amount of ^3H-thymidine uptake. The horizontal axis represents the dipropionylcyclopentenone concentration (μM) and the vertical axis represents ^3H-thymidine uptake (CPM). The open bar represents the ^3H-thymidine uptake when cells from one of the lines were used independently. The shaded bar represents the ^3H-thymidine uptake when cells from both of the lines were mixed together.

[5] = Single oral dose toxicity; type: in vivo; settings: mouse, oral, single dosage of 100 mg/kg
Method: No toxicity is observed when a physiologically effective amount of the cyclopentenone derivative or an optical isomer thereof, or a salt thereof obtained according to the present invention is administered.

With CCC(=O)OC1C=CC(=O)C1OC(=O)CC (stereo not shown) the “Minimum growth inhibitory concentration” value [1] was 500 µg/mL, the “Activation of NK cells (statement)” value (NK cells) was “Activation of NK cells was observed” and the “Suppression of edema in foot (FIG. 5)” value ([2]; 1 mg/kg oral) was “Tendency to suppress the edema in the foot”. For the same compound, the “Suppression of edema in foot (FIG. 5)” value ([2]; 10 mg/kg oral) was “significant suppression”, the “Inhibition of proliferation of mouse lymphocytes stimulated with Con A (FIG. 7)” value [3] was “almost completely inhibited” and the “Inhibition of mixed lymphocyte reaction (FIG. 8)” value [4] was “almost completely inhibited”. The “Death after single oral administration” value [5] was “no death was observed”.
